Source: US20020051811A1, “Method and composition for masking mineral taste” (priority 1999, published 2002)
Marks after values point to notes of the source that are not given here. Residues, ends and D or L forms follow the SMILES beside them.

Key:
Type in all cases: in vivo
[1] = Effect of tannic acid on potassium-containing beverages (taste scores); settings: for Aftertaste / Bitter / Salt: 1.26% KCl beverage, scale 0 to 8
Excerpt: The effect of tannic acid on potassium-containing beverages was studied.

[2] = Expert panel evaluation of taste modifiers on taste of KCl solutions; settings: 1.26% KCl, score 0-8
Method: Additional testing was conducted, comparing the absence of taste modifiers with the three taste modifiers of the invention, both separately, and in combinations (AK and glycyrrhizin) (AK and tannic acid) (glycyrrhizin and tannic acid). […] In this study, again, 1.26% KCl was prepared, and used as the test medium for all experiments. The aqueous solution was evaluation by an expert panel for each of the taste attributes. The panel consisted of eight individuals who were screened for their taste acuity and trained in the use of the score sheet. The score sheet employed by the panel appears as Table III hereto.

[3] = AK added at low levels to solutions containing KCl, perceived bitter aftertaste; settings: 1 to 5 mg/100 ml
Method: The level of AK used was 1 to 5 mg/100 ml, which is equivalent in sweetness contribution to between 0.2% and 1% sucrose. This characteristic is specific to AK, and is not noted when […].

[4] = Effect of glycyrrhizin on potassium-containing beverages (taste scores); settings: for effect on aftertaste of KCl: 20-40 mg/100 cc, beverage containing 2.52% KCl by weight; for Bitter / Metallic / Salt: 2.52% KCl beverage, scale 0 to 8
Excerpt: The effect of glycyrrhizin on potassium-containing beverages was studied.

## O=C(OC[C@H]1O[C@@H](OC(=O)c2cc(O)c(O)c(OC(=O)c3cc(O)c(O)c(O)c3)c2)[C@H](OC(=O)c2cc(O)c(O)c(OC(=O)c3cc(O)c(O)c(O)c3)c2)[C@@H](OC(=O)c2cc(O)c(O)c(OC(=O)c3cc(O)c(O)c(O)c3)c2)[C@@H]1OC(=O)c1cc(O)c(O)c(OC(=O)c2cc(O)c(O)c(O)c2)c1)c1cc(O)c(O)c(OC(=O)c2cc(O)c(O)c(O)c2)c1 [tannic acid]
[1]; +5 mg/100 cc tannic acid
  Aftertaste: 1.0
  Bitter: 1.0
  Salt: 1.5
[1]; +10 mg/100 cc tannic acid
  Aftertaste: 1.0
  Bitter: 1.0
  Salt: 1.0
[1]; +50 mg/100 cc tannic acid
  Aftertaste: 1.0
  Bitter: 2.5
  Salt: 1.5
[1]; beverage containing 1.26% KCl
  effect on bitter aftertaste and salty taste: reduces the level of bitter aftertaste without increasing the salty taste
[1]; levels as low as 5 mg/100 cc, beverage containing 1.26% KCl by weight
  effect on aftertaste of KCl: effective in reducing and eliminating the aftertaste of KCl
[2]; modifier 1.0 mg/100 cc
  Bitter: 3.0*
  Other: 3.3*
  Salt: 3.3
  Sour: 0.0
  Sweet: 0.0
[2]; modifier 5.0 mg/100 cc
  Bitter: 2.0*
  Other: 3.0*
  Salt: 3.8
  Sour: 0.0
  Sweet: 0.0
[2]; modifier 10.0 mg/100 cc
  Bitter: 2.0*
  Other: 2.0*
  Salt: 2.0
  Sour: 0.0
  Sweet: 0.0

## COC(=O)[C@H](Cc1ccccc1)NC(=O)[C@@H](N)CC(=O)O [aspartame] (HELM PEPTIDE1{D.F.[CO[*:1]]}$$$$V2.0)
[3]
  effect on perceived bitter aftertaste of KCl solutions: not noted

## CC1=CC(=O)NS(=O)(=O)O1 [Acesulfame-K, acesulfame potassium]
[3]
  effect on perceived bitter aftertaste of KCl solutions: reduced the perceived bitter aftertaste
[2]; modifier 2.5 mg/100 cc
  Bitter: 3.0*
  Other: 2.8*
  Salt: 2.8
  Sour: 0.0
  Sweet: 0.0
[2]; modifier 5.0 mg/100 cc
  Bitter: 2.3*
  Other: 2.2*
  Salt: 2.3
  Sour: 0.0
  Sweet: 0.0
[2]; modifier 7.5 mg/100 cc
  Bitter: 1.8*
  Other: 0.5*
  Salt: 1.5*
  Sour: 0.0
  Sweet: 1.3

## CC1(C)[C@@H](O[C@H]2O[C@H](C(=O)O)[C@@H](O)[C@H](O)[C@H]2O[C@@H]2O[C@H](C(=O)O)[C@@H](O)[C@H](O)[C@H]2O)CC[C@]2(C)[C@H]3C(=O)C=C4[C@@H]5C[C@@](C)(C(=O)O)CC[C@]5(C)CC[C@@]4(C)[C@]3(C)CC[C@@H]12 [glycyrrhizin]
[4]
  effect on aftertaste of KCl: effective in reducing the aftertaste of KCl
[4]; listed as Glycyrrhizin
  effect on aftertaste of KCl: effective in reducing the bitter and metallic aftertaste of KCl
[4]; +20 mg/100 cc glycyrrhizin
  Bitter: 2.5
  Metallic: 2.0
  Salt: 2.5
[4]; +40 mg/100 cc glycyrrhizin
  Bitter: 2.5
  Metallic: 2.0
  Salt: 2.0
[2]; modifier 5.0 mg/100 cc
  Bitter: 2.0*
  Other: 1.0*
  Salt: 3.5
  Sour: 0.0
  Sweet: 0.0
[2]; modifier 10.0 mg/100 cc
  Bitter: 3.3*
  Other: 2.0*
  Salt: 2.3
  Sour: 0.0
  Sweet: 0.0
[2]; modifier 20.0 mg/100 cc
  Bitter: 2.3*
  Other: 2.0*
  Salt: 2.0
  Sour: 0.0
  Sweet: 0.5

## O=C1NS(=O)(=O)c2ccccc21 [saccharin]
[3]
  effect on perceived bitter aftertaste of KCl solutions: not noted
